Test results from ChEMBL document CHEMBL5614382, “Discovery of a new 1-(phenylsulfonyl)-1H-indole derivative targeting the EphA2 receptor with antiproliferative activity on U251 glioblastoma cell line” (Eur J Med Chem, 2024).

The molecules below were run against Ephrin type-A receptor 2 (Mus musculus, UniProt Q03145) (assay: Displacement of biotinylated Fc-tagged ephrin-A1 from C/N-terminal 6-His tagged mouse recombinant EphA2 (Ala22 to Ala535 residues) preincubated for 1 hr followed by ephrin-A1-Fc addition and measured after 4 to 5 hrs by ELISA assay).
Ephrin type-A receptor 2, sequence (Q03145 whole entry): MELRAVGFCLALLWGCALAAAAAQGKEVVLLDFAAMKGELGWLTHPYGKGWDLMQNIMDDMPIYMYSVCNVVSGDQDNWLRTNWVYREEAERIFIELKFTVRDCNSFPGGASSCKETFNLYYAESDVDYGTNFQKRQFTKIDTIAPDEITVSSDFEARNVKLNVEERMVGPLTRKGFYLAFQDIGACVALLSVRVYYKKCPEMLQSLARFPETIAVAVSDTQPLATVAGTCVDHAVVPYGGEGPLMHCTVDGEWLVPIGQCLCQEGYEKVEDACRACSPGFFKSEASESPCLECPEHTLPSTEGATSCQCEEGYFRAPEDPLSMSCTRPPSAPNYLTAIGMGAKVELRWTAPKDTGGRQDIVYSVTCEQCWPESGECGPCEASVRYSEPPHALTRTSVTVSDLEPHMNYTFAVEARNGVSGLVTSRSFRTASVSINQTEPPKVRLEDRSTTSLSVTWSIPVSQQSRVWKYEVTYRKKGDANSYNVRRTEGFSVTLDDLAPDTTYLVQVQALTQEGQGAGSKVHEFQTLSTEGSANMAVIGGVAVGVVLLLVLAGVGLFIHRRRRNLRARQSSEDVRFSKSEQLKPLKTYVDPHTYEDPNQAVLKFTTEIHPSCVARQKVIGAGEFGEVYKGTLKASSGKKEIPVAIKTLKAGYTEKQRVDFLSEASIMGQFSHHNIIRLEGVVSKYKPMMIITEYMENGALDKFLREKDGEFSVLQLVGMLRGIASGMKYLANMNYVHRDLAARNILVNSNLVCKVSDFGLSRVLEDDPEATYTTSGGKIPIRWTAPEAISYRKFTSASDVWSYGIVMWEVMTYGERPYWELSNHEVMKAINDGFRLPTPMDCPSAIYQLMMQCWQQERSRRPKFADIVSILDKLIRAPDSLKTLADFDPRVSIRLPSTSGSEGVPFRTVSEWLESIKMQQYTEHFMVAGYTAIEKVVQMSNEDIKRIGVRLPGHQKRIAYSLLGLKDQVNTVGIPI
C[C@H](CCC(=O)N[C@H](CC(=O)O)Cc1cn(S(=O)(=O)c2ccsc2)c2ccccc12)[C@H]1CC[C@H]2[C@@H]3CC=C4C[C@@H](O)CC[C@]4(C)[C@H]3CC[C@]12C gave an IC50 of 5.5 µM.
With C[C@H](CCC(=O)N[C@H](CC(=O)O)Cc1cn(S(=O)(=O)c2ccc(C#N)cc2)c2ccccc12)[C@H]1CC[C@H]2[C@@H]3CC=C4C[C@@H](O)CC[C@]4(C)[C@H]3CC[C@]12C the IC50 was 9.9 µM.
Molecule Cc1ccc(S(=O)(=O)n2cc(C[C@@H](CC(=O)O)NC(=O)CC[C@@H](C)[C@H]3CC[C@H]4[C@@H]5CC=C6C[C@@H](O)CC[C@]6(C)[C@H]5CC[C@]34C)c3ccccc32)cc1 has an IC50 of 8.3 µM.
C[C@H](CCC(=O)N[C@H](CC(=O)O)Cc1cn(S(=O)(=O)c2cccc([N+](=O)[O-])c2)c2ccccc12)[C@H]1CC[C@H]2[C@@H]3CC=C4C[C@@H](O)CC[C@]4(C)[C@H]3CC[C@]12C was tested, and the IC50 was 38 µM.
C[C@H](CCC(=O)N[C@H](CC(=O)O)Cc1cn(S(=O)(=O)c2cccc(C#N)c2)c2ccccc12)[C@H]1CC[C@H]2[C@@H]3CC=C4C[C@@H](O)CC[C@]4(C)[C@H]3CC[C@]12C was tested, and the IC50 was 24 µM.
C[C@H](CCC(=O)N[C@H](CC(=O)O)Cc1cn(S(=O)(=O)c2ccc([N+](=O)[O-])cc2)c2ccccc12)[C@H]1CC[C@H]2[C@@H]3CC=C4C[C@@H](O)CC[C@]4(C)[C@H]3CC[C@]12C gave an IC50 of 3.6 µM.
With C[C@H](CCC(=O)N[C@H](CC(=O)O)Cc1cn(S(=O)(=O)c2cccc(-c3ccccc3)c2)c2ccccc12)[C@H]1CC[C@H]2[C@@H]3CC=C4C[C@@H](O)CC[C@]4(C)[C@H]3CC[C@]12C the IC50 was 16 µM.
In the case of C[C@H](CCC(=O)N[C@H](CC(=O)O)Cc1cn(S(=O)(=O)c2ccoc2)c2ccccc12)[C@H]1CC[C@H]2[C@@H]3CC=C4C[C@@H](O)CC[C@]4(C)[C@H]3CC[C@]12C, the IC50 is reported as 6.9 µM.
With C[C@H](CCC(=O)N[C@H](CC(=O)O)Cc1cn(S(=O)(=O)c2ccc(F)cc2)c2ccccc12)[C@H]1CC[C@H]2[C@@H]3CC=C4C[C@@H](O)CC[C@]4(C)[C@H]3CC[C@]12C the IC50 was 8.2 µM.
C[C@H](CCC(=O)N[C@H](CC(=O)O)Cc1cn(S(=O)(=O)c2ccc(N)cc2)c2ccccc12)[C@H]1CC[C@H]2[C@@H]3CC=C4C[C@@H](O)CC[C@]4(C)[C@H]3CC[C@]12C was tested, and the IC50 was 4.7 µM.
For C[C@H](CCC(=O)N[C@H](CC(=O)O)Cc1cn(S(=O)(=O)c2ccc(-c3ccccc3)cc2)c2ccccc12)[C@H]1CC[C@H]2[C@@H]3CC=C4C[C@@H](O)CC[C@]4(C)[C@H]3CC[C@]12C, the IC50 was 20 µM.
Molecule Cc1cccc(S(=O)(=O)n2cc(C[C@@H](CC(=O)O)NC(=O)CC[C@@H](C)[C@H]3CC[C@H]4[C@@H]5CC=C6C[C@@H](O)CC[C@]6(C)[C@H]5CC[C@]34C)c3ccccc32)c1 has an IC50 of 24 µM.
C[C@H](CCC(=O)N[C@H](CC(=O)O)Cc1cn(S(=O)(=O)c2cccc(N)c2)c2ccccc12)[C@H]1CC[C@H]2[C@@H]3CC=C4C[C@@H](O)CC[C@]4(C)[C@H]3CC[C@]12C showed an IC50 of 5.6 µM.
In the case of C[C@H](CCC(=O)N[C@H](CC(=O)O)Cc1cn(S(=O)(=O)c2cccc(F)c2)c2ccccc12)[C@H]1CC[C@H]2[C@@H]3CC=C4C[C@@H](O)CC[C@]4(C)[C@H]3CC[C@]12C, the IC50 is reported as 29 µM.
In the case of C[C@H](CCC(=O)N[C@H](CC(=O)O)Cc1cn(S(=O)(=O)c2cccnc2)c2ccccc12)[C@H]1CC[C@H]2[C@@H]3CC=C4C[C@@H](O)CC[C@]4(C)[C@H]3CC[C@]12C, the IC50 is reported as 16 µM.
Work on C[C@H](CCC(=O)N[C@H](CC(=O)O)Cc1cn(S(=O)(=O)c2cccc(C(F)(F)F)c2)c2ccccc12)[C@H]1CC[C@H]2[C@@H]3CC=C4C[C@@H](O)CC[C@]4(C)[C@H]3CC[C@]12C yielded an IC50 of 12 µM.
